Test results from PMC4628560 (Nature cell biology, 2015).
Where two headings read alike, the source gives them in different places.

What was measured:
[1] = target: T1, 6-phosphogluconate dehydrogenase (6PGD) (Homo sapiens, UniProt P52209); test: tryptophan fluorescence-based binding assay with purified human 6PGD
T1 sequence (P52209 1-483): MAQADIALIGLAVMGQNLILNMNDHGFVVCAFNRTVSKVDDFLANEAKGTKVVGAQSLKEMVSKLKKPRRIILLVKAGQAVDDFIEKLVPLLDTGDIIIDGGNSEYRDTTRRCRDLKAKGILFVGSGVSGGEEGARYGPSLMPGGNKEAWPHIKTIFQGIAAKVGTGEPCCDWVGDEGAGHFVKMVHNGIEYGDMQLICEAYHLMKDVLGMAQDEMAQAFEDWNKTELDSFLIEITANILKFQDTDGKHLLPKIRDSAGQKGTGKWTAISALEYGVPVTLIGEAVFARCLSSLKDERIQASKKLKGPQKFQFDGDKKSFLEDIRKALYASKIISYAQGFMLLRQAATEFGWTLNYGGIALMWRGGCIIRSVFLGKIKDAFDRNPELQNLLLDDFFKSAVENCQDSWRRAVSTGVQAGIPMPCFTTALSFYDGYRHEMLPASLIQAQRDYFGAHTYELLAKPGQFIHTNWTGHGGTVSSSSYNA

[2] = target: T1, 6-phosphogluconate dehydrogenase (6PGD); test: as above; remark: listed apart in the source

A Kd [1] of 17.1 µM was found for `COc1cccc2c1C(=O)c1c(O)cccc1C2=O` [S3, 1-Hydroxy-8-methoxy-anthraquinon] in this work.

A Kd [2] of 26 µM was found for `COc1cc(O)c2c(c1)C(=O)c1cc(C)cc(O)c1C2=O` [Physcion, 1,8-Dihydroxy-3-methoxy-6-methyl-anthraquinone] in this work.
